The text below walks through data of PMC8820799, “Angiogenesis and anti-leukaemia activity of novel indole derivatives as potent colchicine binding site inhibitors” (Journal of Enzyme Inhibition and Medicinal Chemistry, 2022).

Each structure is given as a SMILES string. Bounds are passed on as bounds.

In data set [1] the test system is transgenic zebrafish (FLK-1:EGFP). Nature of the data set: Zebrafish angiogenesis assay (ISVs). The class given is in vivo. Conditions: Danio rerio, transgenic zebrafish; triplicate, mean ± SD; read-out: Zebrafish (antiangiogenic activity IC50). The procedure: The transgenic flk: enhanced GFP zebrafish embryos were generated by pair-wise mating, collected and sorted into the 6-well plate (n = 30 per well) with 1 ml of aquaculture water (0.2 g/L of Instant Ocean Salt in distilled water) and raised at 28 °C. Then the embryos staged at 12 h post fertilisation (hpf) were treated with the indicated concentrations of compounds which were added into embryo water. About 30 embryos were screened for each concentration gradient. At 30hpf, the treated embryos were anaesthetised with 0.02% tricaine in embryo water and photographed. The numbers of ISVs were recorded under confocal microscopy. Results were obtained from three independent determinations and presented as mean ± SD.[38]

The target of data set [2] is T1, Tubulin isolated from porcine brain tissue (Sus scrofa, UniProt P02550+P02554).
T1 construct: purchased Cytoskeleton (Denver, CO), via Beyotime, China; host or cells: porcine brain tissue
T1 sequence (P02554 whole entry): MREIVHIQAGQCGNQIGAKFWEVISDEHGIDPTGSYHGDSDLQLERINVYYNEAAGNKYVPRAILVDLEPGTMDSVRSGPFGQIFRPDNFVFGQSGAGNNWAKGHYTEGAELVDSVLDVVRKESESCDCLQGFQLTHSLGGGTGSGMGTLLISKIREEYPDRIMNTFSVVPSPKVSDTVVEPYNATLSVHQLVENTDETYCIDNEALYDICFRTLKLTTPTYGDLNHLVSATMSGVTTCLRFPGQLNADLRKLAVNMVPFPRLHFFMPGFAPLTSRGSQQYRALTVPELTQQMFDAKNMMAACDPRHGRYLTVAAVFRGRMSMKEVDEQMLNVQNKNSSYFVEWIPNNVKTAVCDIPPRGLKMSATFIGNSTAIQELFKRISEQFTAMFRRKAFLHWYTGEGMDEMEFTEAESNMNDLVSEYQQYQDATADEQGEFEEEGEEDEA
T1 sequence (P02550 whole entry): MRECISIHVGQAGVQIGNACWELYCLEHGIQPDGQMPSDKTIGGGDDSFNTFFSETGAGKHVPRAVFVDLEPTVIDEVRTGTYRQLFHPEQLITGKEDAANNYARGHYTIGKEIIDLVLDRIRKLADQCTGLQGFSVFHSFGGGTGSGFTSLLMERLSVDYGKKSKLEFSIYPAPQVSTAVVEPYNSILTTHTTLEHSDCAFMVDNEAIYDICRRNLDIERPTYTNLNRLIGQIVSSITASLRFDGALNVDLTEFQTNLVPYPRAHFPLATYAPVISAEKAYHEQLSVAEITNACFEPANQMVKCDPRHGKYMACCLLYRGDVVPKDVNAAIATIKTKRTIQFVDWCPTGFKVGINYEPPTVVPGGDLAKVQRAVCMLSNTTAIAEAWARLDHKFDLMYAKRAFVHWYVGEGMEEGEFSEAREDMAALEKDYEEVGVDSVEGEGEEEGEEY
Nature of the data set: Tubulin polymerisation assay. The class given is biochemical. The conditions noted are these: triplicate, mean ± SD; read-out: Tubulin (tubulin inhibitory polymerisation IC50). The procedure: Tubulin polymerisation was determined with the tubulin polymerisation assay kit (Cytoskeleton, Denver, CO which was purchased from Cytoskeleton, Beyotime, China. Tubulin isolated from porcine brain tissue was used in this commercial kit.) It is based on the principal that light is scattered by microtubules to an extent that is proportional to the concentration of the microtubule polymer. Compounds that interact with tubulin will alter the polymerisation of tubulin, and this can be detected using a spectrophotometer. Tubulin polymerisation dynamics was monitored through measuring the change of absorbance at 340 nm every 2 min for 30 min at 37 °C on a spectrophotometer.

Consider `COc1cc(C(=O)C=Cc2c[nH]c3ccccc23)cc(OC)c1OC` [Compound 6], for which the IC50 in data set [1] turned out to be 27.8 ± 0.9 µM; in data set [2] it was 8.5 ± 1.2 µM.
On to `COc1cc(C(=O)C=Cc2cc3ccccc3o2)cc(OC)c1OC` [Compound 7], for which the IC50 was 29.5 ± 1.5 µM in data set [1] and 18.6 ± 0.5 µM in data set [2].
For `COc1cc(C(=O)C=Cc2ccc3sc4ccccc4c3c2)cc(OC)c1OC` [Compound 8], the IC50 in data set [1] turned out to be 68.6 ± 2.1 µM; in data set [2], 45.7 ± 2.3 µM.
In the same order, the values of `COc1cc(C(=O)C=Cc2nc3ccccc3[nH]2)cc(OC)c1OC` [Compound 9] are more than 100 µM and 20.8 ± 1.4 µM.
Take `Cn1cc(/C=C/C(=O)c2ccccc2)c2ccccc21` [Compound 23a, (E)-3–(1-Methyl-1H-indol-3-yl)-1-phenylprop-2-en-1-one]: the IC50 in data set [2] is more than 100 µM.
`CCn1cc(/C=C/C(=O)c2ccccc2)c2ccccc21` [Compound 23b, (E)-3–(1-Ethyl-1H-indol-3-yl)-1-phenylprop-2-en-1-one] gave a melting point of 165 to 168 °C. In addition, in data set [2], the IC50 is more than 100 µM.
On to `CCCn1cc(/C=C/C(=O)c2ccccc2)c2ccccc21` [Compound 23c, (E)-1-Phenyl-3–(1-propyl-1H-indol-3-yl)prop-2-en-1-one], for which the melting point is 161 to 162 °C. In data set [2], the IC50 was more than 100 µM.
The like results for `O=C(/C=C/c1cn(Cc2ccccc2)c2ccccc12)c1ccccc1` [Compound 23d, (E)-3–(1-Benzyl-1H-indol-3-yl)-1-phenylprop-2-en-1-one] were, in that order, 161 to 163 °C and 68.6 ± 3.2 µM.
The like results for `O=C(/C=C/c1cn(S(=O)(=O)c2ccccc2)c2ccccc12)c1ccccc1` [Compound 23e, (E)-1-Phenyl-3–(1-(phenylsulfonyl)-1H-indol-3-yl)prop-2-en-1-one] were, in that order, 165 to 168 °C and more than 100 µM.
The like results for `Cn1cc(/C=C/C(=O)c2cccc(Cl)c2)c2ccccc21` [Compound 24a, (E)-1–(3-Chlorophenyl)-3–(1-methyl-1H-indol-3-yl)prop-2-en-1-one] were, in that order, 173 to 175 °C and more than 100 µM.
In turn, `CCn1cc(/C=C/C(=O)c2cccc(Cl)c2)c2ccccc21` [Compound 24b, (E)-1–(3-Chlorophenyl)-3–(1-ethyl-1H-indol-3-yl)prop-2-en-1-one] came in with a melting point of 165 to 168 °C. Besides, in data set [2], the IC50 was more than 100 µM.
The like results for `CCCn1cc(/C=C/C(=O)c2cccc(Cl)c2)c2ccccc21` [Compound 24c, (E)-1–(3-Chlorophenyl)-3–(1-propyl-1H-indol-3-yl)prop-2-en-1-one] were, in that order, 161 to 162 °C and more than 100 µM.
The like results for `O=C(/C=C/c1cn(Cc2ccccc2)c2ccccc12)c1cccc(Cl)c1` [Compound 24d, (E)-3–(1-Benzyl-1H-indol-3-yl)-1–(3-chlorophenyl)prop-2-en-1-one] were, in that order, 161 to 163 °C and more than 100 µM.
In turn, `O=C(/C=C/c1cn(S(=O)(=O)c2ccccc2)c2ccccc12)c1cccc(Cl)c1` [Compound 24e, (E)-1–(3-Chlorophenyl)-3–(1-(phenylsulfonyl)-1H-indol-3-yl)prop-2-en-1-one] showed a melting point of 165 to 168 °C. Further, in data set [2], the IC50 amounted to 92.3 ± 2.4 µM.
The like results for `Cn1cc(/C=C/C(=O)c2ccc(Cl)cc2)c2ccccc21` [Compound 25a, (E)-1–(4-chlorophenyl)-3–(1-methyl-1H-indol-3-yl)prop-2-en-1-one] were, in that order, 171 to 173 °C and more than 100 µM.
Consider `CCn1cc(/C=C/C(=O)c2ccc(Cl)cc2)c2ccccc21` [Compound 25b, (E)-1–(4-chlorophenyl)-3–(1-ethyl-1H-indol-3-yl)prop-2-en-1-one], for which the melting point was in the range of 165 to 168 °C. The IC50 in data set [2] was more than 100 µM.
The like results for `CCCn1cc(/C=C/C(=O)c2ccc(Cl)cc2)c2ccccc21` [Compound 25c, (E)-1–(4-chlorophenyl)-3–(1-propyl-1H-indol-3-yl)prop-2-en-1-one] were, in that order, 160 to 162 °C and more than 100 µM.
In the same order, the values of `O=C(/C=C/c1cn(Cc2ccccc2)c2ccccc12)c1ccc(Cl)cc1` [Compound 25d, (E)-3–(1-benzyl-1H-indol-3-yl)-1–(4-chlorophenyl)prop-2-en-1-one] are 163 to 165 °C and more than 100 µM.
The like results for `O=C(/C=C/c1cn(S(=O)(=O)c2ccccc2)c2ccccc12)c1ccc(Cl)cc1` [Compound 25e, (E)-1–(4-chlorophenyl)-3–(1-(phenylsulfonyl)-1H-indol-3-yl)prop-2-en-1-one] were, in that order, 162 to 165 °C and more than 100 µM.
`COc1ccc(C(=O)/C=C/c2cn(C)c3ccccc23)cc1` [Compound 26a, (E)-1–(4-Methoxyphenyl)-3–(1-methyl-1H-indol-3-yl)prop-2-en-1-one] came in with a melting point of 160 to 162 °C. For the same compound, the IC50 in data set [2] worked out at 85.7 ± 2.5 µM.
In the same order, the values of `CCn1cc(/C=C/C(=O)c2ccc(OC)cc2)c2ccccc21` [Compound 26b, (E)-3–(1-Ethyl-1H-indol-3-yl)-1–(4-methoxyphenyl)prop-2-en-1-one] are 165 to 168 °C and 78.8 ± 1.3 µM.
The compound `CCCn1cc(/C=C/C(=O)c2ccc(OC)cc2)c2ccccc21` [Compound 26c, (E)-1–(4-Methoxyphenyl)-3–(1-propyl-1H-indol-3-yl)prop-2-en-1-one] registered a melting point of 161 to 162 °C. Further, the IC50 in data set [2] came to 72.5 ± 1.7 µM.
The like results for `COc1ccc(C(=O)/C=C/c2cn(Cc3ccccc3)c3ccccc23)cc1` [Compound 26d, (E)-3–(1-Benzyl-1H-indol-3-yl)-1–(4-methoxyphenyl)prop-2-en-1-one] were, in that order, 161 to 163 °C and 75.8 ± 2.6 µM.
On to `COc1ccc(C(=O)/C=C/c2cn(S(=O)(=O)c3ccccc3)c3ccccc23)cc1` [Compound 26e, (E)-1–(4-Methoxyphenyl)-3–(1-(phenylsulfonyl)-1H-indol-3-yl)prop-2-en-1-one], for which the melting point lay in the range of 165 to 168 °C. Further, in data set [1], the IC50 came to 35.6 ± 3.2 µM. Moreover, the half-maximal inhibitory concentration (IC50) in data set [2] was 58.4 ± 1.7 µM.
Turning to `COc1cccc(C(=O)/C=C/c2cn(C)c3ccccc23)c1` [Compound 27a, (E)-1–(3-Methoxyphenyl)-3–(1-methyl-1H-indol-3-yl)prop-2-en-1-one], the melting point was 161 to 162 °C. Besides, the IC50 in data set [2] is more than 100 µM.
In the same order, the values of `CCn1cc(/C=C/C(=O)c2cccc(OC)c2)c2ccccc21` [Compound 27b, (E)-3–(1-Ethyl-1H-indol-3-yl)-1–(3-methoxyphenyl)prop-2-en-1-one] are 165 to 166 °C and more than 100 µM.
The like results for `COc1cccc(C(=O)/C=C/c2cn(Cc3ccccc3)c3ccccc23)c1` [Compound 27d, (E)-3–(1-Benzyl-1H-indol-3-yl)-1–(3-methoxyphenyl)prop-2-en-1-one] were, in that order, 161 to 163 °C and more than 100 µM.
In the same order, the values of `COc1cccc(C(=O)/C=C/c2cn(S(=O)(=O)c3ccccc3)c3ccccc23)c1` [Compound 27e, (E)-1–(3-Methoxyphenyl)-3–(1-(phenylsulfonyl)-1H-indol-3-yl)prop-2-en-1-one] are 167 to 168 °C and 87.2 ± 1.4 µM.
Regarding `Cn1cc(/C=C/C(=O)c2ccc(C(F)(F)F)cc2)c2ccccc21` [Compound 28a, (E)-3–(1-Methyl-1H-indol-3-yl)-1–(4-(trifluoromethyl)phenyl)prop-2-en-1-one], the melting point fell in the range of 160 to 162 °C. In addition, the IC50 in data set [2] is more than 100 µM.
In the same order, the values of `CCn1cc(/C=C/C(=O)c2ccc(C(F)(F)F)cc2)c2ccccc21` [Compound 28b, (E)-3–(1-ethyl-1H-indol-3-yl)-1–(4-(trifluoromethyl)phenyl)prop-2-en-1-one] are 165 to 168 °C and more than 100 µM.
As to `CCCn1cc(/C=C/C(=O)c2ccc(C(F)(F)F)cc2)c2ccccc21` [Compound 28c, (E)-3–(1-Propyl-1H-indol-3-yl)-1–(4-(trifluoromethyl)phenyl)prop-2-en-1-one], the melting point lay in the range of 161 to 162 °C. For the same compound, the 50% inhibitory concentration (IC50) in data set [2] stood at 26.8 ± 4.6 µM.
The like results for `O=C(/C=C/c1cn(Cc2ccccc2)c2ccccc12)c1ccc(C(F)(F)F)cc1` [Compound 28d, (E)-3–(1-Benzyl-1H-indol-3-yl)-1–(4-(trifluoromethyl)phenyl)prop-2-en-1-one] were, in that order, 160 to 163 °C and more than 100 µM.
In the case of `CCn1cc(/C=C/C(=O)c2cc(OC)c(OC)c(OC)c2)c2ccccc21` [Compound 29b, (E)-3–(1-Ethyl-1H-indol-3-yl)-1–(3,4,5-trimethoxyphenyl)prop-2-en-1-one], the melting point lay in the range of 155 to 158 °C. Moreover, in data set [2], the IC50 is more than 100 µM.
The like results for `CCCn1cc(/C=C/C(=O)c2cc(OC)c(OC)c(OC)c2)c2ccccc21` [Compound 29c, (E)-3–(1-Propyl-1H-indol-3-yl)-1–(3,4,5-trimethoxyphenyl)prop-2-en-1-one] were, in that order, 162 to 164 °C and more than 100 µM.
